Results taken from ChEMBL document CHEMBL5050844 (2019).

Legend:
[1] = Induction of anti-CD3/CD28 antibodies-stimulated human T cell activation at 1 uM assessed fold increase in CD25 expression measured by ELISA assay; type: functional, T cell line
[2] = Induction of anti-CD3/CD28 antibodies-stimulated human T cell activation at 0.3 uM assessed fold increase in IL-2 secretion measured by ELISA assay; type: functional, T cell line
[3] = Induction of anti-CD3/CD28 antibodies-stimulated human T cell activation at 0.3 uM assessed fold increase in CD25 expression measured by ELISA assay; type: functional, T cell line
[4] = Induction of anti-CD3/CD28 antibodies-stimulated human T cell activation at 1 uM assessed fold increase in IL-2 secretion measured by ELISA assay; type: functional, T cell line
[5] = Induction of anti-CD3 antibodies-stimulated human T cell activation at 1 uM assessed fold increase in IL-2 secretion measured by ELISA assay; type: functional, T cell line; also: reference of the scale not given here
[6] = target: E3 ubiquitin-protein ligase CBL-B (Homo sapiens, UniProt Q13191); experiment: Inhibition of N-terminal Avi-tagged human CBL-B (36 to 427 residues) incubated with 60 nM Src kinase for 1.5 hrs followed by incubation with fluorescently labeled UbcH5B-Ub for 1 hr and measured by TR-FRET assay; type: single protein
E3 ubiquitin-protein ligase CBL-B, sequence (Q13191 whole entry, the tested form may be a part): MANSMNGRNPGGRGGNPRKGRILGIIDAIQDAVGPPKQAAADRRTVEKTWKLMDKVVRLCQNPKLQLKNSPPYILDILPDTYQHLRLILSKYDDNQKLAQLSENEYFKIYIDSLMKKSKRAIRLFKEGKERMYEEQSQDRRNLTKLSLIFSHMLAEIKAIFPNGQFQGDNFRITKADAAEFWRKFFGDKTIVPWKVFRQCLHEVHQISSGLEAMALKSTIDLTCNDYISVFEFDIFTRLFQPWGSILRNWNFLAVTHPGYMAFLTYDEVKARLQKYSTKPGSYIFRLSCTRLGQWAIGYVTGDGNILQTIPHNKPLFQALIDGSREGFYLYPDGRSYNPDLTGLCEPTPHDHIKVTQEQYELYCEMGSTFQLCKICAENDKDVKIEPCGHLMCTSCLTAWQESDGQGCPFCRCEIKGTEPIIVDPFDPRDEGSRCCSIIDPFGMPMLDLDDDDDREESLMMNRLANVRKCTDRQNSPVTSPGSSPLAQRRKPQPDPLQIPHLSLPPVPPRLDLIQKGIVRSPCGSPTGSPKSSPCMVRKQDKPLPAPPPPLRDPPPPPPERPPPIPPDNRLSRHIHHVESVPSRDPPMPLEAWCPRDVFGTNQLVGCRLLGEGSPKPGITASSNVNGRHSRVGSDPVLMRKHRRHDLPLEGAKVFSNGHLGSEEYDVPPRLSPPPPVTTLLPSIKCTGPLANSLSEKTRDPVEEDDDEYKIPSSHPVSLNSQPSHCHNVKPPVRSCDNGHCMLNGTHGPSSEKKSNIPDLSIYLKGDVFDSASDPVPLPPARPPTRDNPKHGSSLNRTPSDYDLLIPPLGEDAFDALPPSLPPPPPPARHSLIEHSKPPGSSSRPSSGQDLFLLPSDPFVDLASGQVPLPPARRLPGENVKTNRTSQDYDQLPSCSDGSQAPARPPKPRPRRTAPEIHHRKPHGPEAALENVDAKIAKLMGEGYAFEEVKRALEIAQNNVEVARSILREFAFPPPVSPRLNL

[7] = Induction of anti-CD3 antibodies-stimulated human T cell activation at 1 uM assessed fold increase in CD25 expression measured by ELISA assay; type: functional, T cell line; also: reference of the scale not given here

SMILES | fold change (FC) [1] | fold change (FC) [2] | fold change (FC) [3] | fold change (FC) [4] | fold change (FC) [5] | IC50 [6] [nM] | fold change (FC) [7]
Cn1cnnc1CC1(c2cccc(NC(=O)c3csc(C(F)(F)F)n3)c2)COC1 | 1.01 | 1.01 | 1.01 | 1.01 | 0.051 | < 100 | 0.601
Cn1cnnc1CC1(c2cccc(N3Cc4c(cc(CN5CC6CC6(C)C5)cc4C(F)(F)F)C3=O)c2)COC1 (centres undefined) | 1.01 | >=7.5 | 1.01 | >=7.5 | >=0.201 | < 100 | >=1.001
Cn1cnnc1CC1(c2cccc(N3Cc4c(cc(OC(F)F)cc4C(F)(F)F)C3=O)c2)COC1 | 1.31 | 2.51 | 1.01 | 5 | 0.051 | < 100 | 0.801
Cn1cnnc1CC1(c2cccc(N3Cc4c(cc(CN5CC[C@H](F)C5)nc4C4CC4)C3=O)c2)COC1 | 1.01 | 2.51 | 1.01 | 5 | 0.051 | < 100 | 0.801
CN1C[C@@H]2C[C@H]1CN2c1cc2c(c(C(F)(F)F)c1)CN(c1cccc(C3(Cc4nncn4C)COC3)c1)C2=O (single isomer, unassigned) | 1.31 | >=7.5 | 1.31 | >=7.5 | >=0.201 | < 100 | >=1.001
C[C@@H]1CCN(Cc2cc3c(c(C(F)(F)F)c2)CN(c2cccc(C4(Cc5nncn5C)COC4)c2)C3=O)C[C@H]1F (relative stereo) | 1.51 | >=7.5 | 1.31 | >=7.5 | >=0.201 | < 100 | >=1.001
Cn1cnnc1CC1(c2cccc(N3Cc4c(ccnc4C(F)(F)F)C3=O)c2)COC1 | 1.01 | 1.01 | 1.01 | 1.01 | <=0.05 | < 100 | 0.601
CC1CN(c2cc3c(c(C(F)(F)F)c2)CN(c2cccc(C4(Cc5nncn5C)COC4)c2)C3=O)C1C (centres undefined) | 1.01 | 1.01 | 1.01 | 2.51 | 0.051 | < 100 | 0.601
CC[C@H](c1cc2c(c(C(F)(F)F)c1)CN(c1cccc(C3(Cc4nncn4C)COC3)c1)C2=O)N1CC[C@H](F)C1 | 1.51 | >=7.5 | 1.51 | >=7.5 | >=0.201 | < 100 | >=1.001
Cc1conc1CC1(c2cccc(N3Cc4c(cc(CN5CCC6(CC6)C5)cc4C(F)(F)F)C3=O)c2)COC1 | 1.31 | >=7.5 | 1.31 | >=7.5 | >=0.201 | < 100 | >=1.001
Cc1cc(C(=O)Nc2cccc(C3(C(F)(F)c4nncn4C)CC3)c2)nc(C2CC2)n1 | 1.01 | 1.01 | 1.01 | 2.51 | 0.101 | < 100 | 0.601
Cc1cc2c(c(C3CC3)n1)CN(c1cccc(C3(Cc4nncn4C)COC3)c1)C2=O | 1.31 | 1.01 | 1.01 | 2.51 | 0.051 | < 100 | 0.801
Cn1cnnc1CC1(c2cccc(N3Cc4c(cc(CN5CCCC56COC6)cc4C(F)(F)F)C3=O)c2)COC1 | 1.31 | 1.01 | 1.01 | 5 | 0.151 | < 100 | 0.801
Cn1cnnc1[C@@H](F)C1(c2cccc(N3Cc4c(cc(CN5CCCCC5)cc4C(F)(F)F)C3=O)c2)COC1 | 1.51 | >=7.5 | 1.31 | >=7.5 | 0.101 | < 100 | >=1.001
Cn1cnnc1CC1(c2cccc(N3Cc4c(cc(CN5CCCCC(F)C5)cc4C(F)(F)F)C3=O)c2)COC1 (centres undefined) | 1.31 | 5 | 1.31 | >=7.5 | >=0.201 | < 100 | >=1.001
Cn1cnnc1CC1(c2cccc(N3Cc4c(cc(C5CC5)nc4C4CC4)C3=O)c2)COC1 | 1.01 | 1.01 | 1.01 | 1.01 | 0.101 | < 100 | 0.801
CC(c1cc2c(c(C3CC3)n1)CN(c1cccc(C3(Cc4nncn4C)COC3)c1)C2=O)N1CCCC1 (centres undefined) | 1.01 | 1.01 | 1.01 | 2.51 | <=0.05 | < 100 | 0.601
Cn1cnnc1CC1(c2cccc(N3Cc4c(cc(CN5CCS(=O)(=O)CC5)cc4C(F)(F)F)C3=O)c2)COC1 | 1.01 | 2.51 | 1.01 | 2.51 | 0.101 | < 100 | >=1.001
CO[C@@H]1CCN(Cc2cc3c(c(C(F)(F)F)c2)CN(c2cccc(C4(Cc5nncn5C)COC4)c2)C3=O)C[C@@H]1F (relative stereo) | 1.31 | >=7.5 | 1.31 | >=7.5 | >=0.201 | < 100 | >=1.001
Cn1cnnc1CC1(c2cccc(NC(=O)c3cc(CN4CCC4)nc(C4CC4)n3)c2)COC1 | 1.31 | 2.51 | 1.01 | 5 | 0.051 | < 100 | 0.801
Cc1cc(C(=O)Nc2cc(C3CC3)cc(C3(Cc4nncn4C)COC3)c2)nc(C2CC2)n1 | 1.31 | 2.51 | 1.01 | >=7.5 | >=0.201 | < 100 | >=1.001
Cn1cnnc1CC1(c2cccc(N3Cc4c(cc(CN5CCOC6(CCC6)C5)cc4C(F)(F)F)C3=O)c2)COC1 | 1.01 | >=7.5 | 1.01 | >=7.5 | >=0.201 | < 100 | >=1.001
